The target of data set [1] is T1, Alpha2C (Homo sapiens, UniProt P18825).
T1 construct: purchased NIMH Psychoactive Drug Screening Program (PDSP)
T1 sequence (P18825 1-462): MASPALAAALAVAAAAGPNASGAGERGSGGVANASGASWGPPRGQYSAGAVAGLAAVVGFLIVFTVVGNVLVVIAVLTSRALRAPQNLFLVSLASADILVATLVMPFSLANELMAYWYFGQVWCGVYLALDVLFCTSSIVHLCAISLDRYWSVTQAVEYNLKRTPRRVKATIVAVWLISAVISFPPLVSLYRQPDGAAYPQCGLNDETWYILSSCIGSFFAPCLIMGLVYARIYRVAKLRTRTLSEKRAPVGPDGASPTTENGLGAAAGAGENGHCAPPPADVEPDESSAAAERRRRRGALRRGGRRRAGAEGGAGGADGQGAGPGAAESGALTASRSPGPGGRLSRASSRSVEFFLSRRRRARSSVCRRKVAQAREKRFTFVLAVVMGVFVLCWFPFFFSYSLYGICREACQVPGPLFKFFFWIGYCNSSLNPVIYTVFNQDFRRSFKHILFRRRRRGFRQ
Kind of data set: PDSP primary binding Alpha2C. Conditions: 1.5 h; primary binding, 10,000 nM; last figure of the line = mean of the 4 before it; read-out: Alpha2C, PDSP raw data, mean. As for the experimental part:
(§1) To determine if any off-target receptor-binding effects are present, all the novel ligands were sent to the National Institute of Mental Health (NIMH), Psychoactive Drug Screening Program (PDSP). The ligands were screened over a panel of 47 receptors, ion channels, and transporters to determine any other possible interactions with […]. The hERG-binding was also determined. […] No binding of the test compounds to calcium channels was observed. […] It is necessary to screen the compounds for hERG-binding during the early process of drug discovery. The unintentional binding of many drugs to hERG can cause blockade of hERG K+ channels in the heart, which can cause many side effects including cardiac arrhythmias and sudden death. […] All of the α5 imidazodiazepines were tested for hERG-binding.
(§2) The NIMH PDSP assay protocol book [https://kidbdev.med.unc.edu/databases/PDSP%20Protocols%20II%202013-03-28.pdf accessed on 23 April 2023]. describes the protocols for primary and secondary radio-ligand binding assays. These assays were carried out in a final volume of 125 µL per well in the appropriate binding buffer.
(§3) The binding of a ligand to a receptor, ion channel, or transporter was determined in the […] of 10 µM of the appropriate reference compound. […] Plates were incubated in the dark for 90 min at rt, and the reactions were stopped by vacuum filtration onto 0.3% polyethyleneimine (PEI) soaked 96-well filter mats using a 96-well Filtermateharvester. This was followed by three washes with cold PBS buffer. Radioactivity was then counted on a Microbeta counter. Nonlinear regression was used to analyze the data with N = 6 replicates.

In data set [2] the target is T2, Alpha3Beta4 (Rattus norvegicus, UniProt P04757+P12392).
T2 construct: purchased NIMH Psychoactive Drug Screening Program (PDSP)
T2 sequence (P04757 26-499): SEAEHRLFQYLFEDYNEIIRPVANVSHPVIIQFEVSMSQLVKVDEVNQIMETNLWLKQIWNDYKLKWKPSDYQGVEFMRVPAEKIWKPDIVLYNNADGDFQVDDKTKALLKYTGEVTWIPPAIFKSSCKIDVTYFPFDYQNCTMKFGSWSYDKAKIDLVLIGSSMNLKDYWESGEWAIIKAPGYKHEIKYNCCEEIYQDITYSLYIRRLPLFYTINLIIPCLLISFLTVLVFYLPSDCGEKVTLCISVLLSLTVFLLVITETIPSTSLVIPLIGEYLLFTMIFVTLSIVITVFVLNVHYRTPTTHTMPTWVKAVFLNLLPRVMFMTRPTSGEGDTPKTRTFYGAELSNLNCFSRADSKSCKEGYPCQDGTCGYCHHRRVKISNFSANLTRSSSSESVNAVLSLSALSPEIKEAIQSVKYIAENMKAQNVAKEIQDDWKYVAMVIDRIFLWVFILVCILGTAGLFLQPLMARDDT
T2 sequence (P12392 21-495): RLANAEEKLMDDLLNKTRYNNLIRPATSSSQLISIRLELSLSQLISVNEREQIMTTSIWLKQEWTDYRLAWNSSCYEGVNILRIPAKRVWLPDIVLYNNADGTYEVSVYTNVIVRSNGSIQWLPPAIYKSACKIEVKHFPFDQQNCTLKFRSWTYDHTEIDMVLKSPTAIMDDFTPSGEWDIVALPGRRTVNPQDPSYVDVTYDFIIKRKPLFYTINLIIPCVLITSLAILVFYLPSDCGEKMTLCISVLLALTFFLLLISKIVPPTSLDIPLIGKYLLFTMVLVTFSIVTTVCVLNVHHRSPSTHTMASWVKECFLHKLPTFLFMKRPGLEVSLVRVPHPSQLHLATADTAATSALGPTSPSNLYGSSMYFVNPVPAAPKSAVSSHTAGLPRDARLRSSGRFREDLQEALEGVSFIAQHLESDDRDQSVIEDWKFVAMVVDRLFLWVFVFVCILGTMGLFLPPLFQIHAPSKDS
Kind of data set: PDSP primary binding Alpha3Beta4. The conditions noted are these: primary binding, 10,000 nM; last figure of the line = mean of the 4 before it; read-out: Alpha3Beta4, PDSP raw data, mean. As to the method: as §1, §2, §3

Data set [3] has as its target T3, hERG channels (Homo sapiens, UniProt Q12809).
T3 construct: purchased NIMH Psychoactive Drug Screening Program (PDSP)
Kind of data set: PDSP radioligand binding at hERG. The conditions noted are these: primary binding, 10,000 nM; last figure of the line = mean of the 4 before it. As for the experimental part: as §1, §2, §3

For data set [4], the target named is T4, 5-HT3 (Homo sapiens, UniProt P46098).
T4 construct: purchased NIMH Psychoactive Drug Screening Program (PDSP)
T4 sequence (P46098 24-478): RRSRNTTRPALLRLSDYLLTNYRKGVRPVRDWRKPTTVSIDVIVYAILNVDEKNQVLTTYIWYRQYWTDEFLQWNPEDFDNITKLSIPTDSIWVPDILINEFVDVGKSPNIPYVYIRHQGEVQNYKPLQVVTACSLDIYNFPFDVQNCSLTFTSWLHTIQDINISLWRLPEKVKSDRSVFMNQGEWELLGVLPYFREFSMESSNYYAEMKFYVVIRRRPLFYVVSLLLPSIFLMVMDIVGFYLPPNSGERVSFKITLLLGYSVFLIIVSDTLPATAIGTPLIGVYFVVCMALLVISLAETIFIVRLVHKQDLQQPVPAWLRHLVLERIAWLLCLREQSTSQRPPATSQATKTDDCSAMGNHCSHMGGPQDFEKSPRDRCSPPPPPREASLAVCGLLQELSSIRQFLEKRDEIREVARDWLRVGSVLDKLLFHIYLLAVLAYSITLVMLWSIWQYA
Kind of data set: PDSP primary binding 5-HT3. Conditions: 1.5 h; primary binding, 10,000 nM; last figure of the line = mean of the 4 before it; read-out: 5-HT3, PDSP raw data, mean. As for the experimental part:
as §1, §2, §3

The subject of data set [5] is Kainate (Rat Brain). Kind of data set: PDSP primary binding Kainate (Rat Brain). Conditions: primary binding, 10,000 nM; last figure of the line = mean of the 4 before it. As for the experimental part:
as §1, §2, §3

Data set [6] concerns the target T5, M2 (Homo sapiens, UniProt P08172).
T5 construct: purchased NIMH Psychoactive Drug Screening Program (PDSP)
T5 sequence (P08172 1-466): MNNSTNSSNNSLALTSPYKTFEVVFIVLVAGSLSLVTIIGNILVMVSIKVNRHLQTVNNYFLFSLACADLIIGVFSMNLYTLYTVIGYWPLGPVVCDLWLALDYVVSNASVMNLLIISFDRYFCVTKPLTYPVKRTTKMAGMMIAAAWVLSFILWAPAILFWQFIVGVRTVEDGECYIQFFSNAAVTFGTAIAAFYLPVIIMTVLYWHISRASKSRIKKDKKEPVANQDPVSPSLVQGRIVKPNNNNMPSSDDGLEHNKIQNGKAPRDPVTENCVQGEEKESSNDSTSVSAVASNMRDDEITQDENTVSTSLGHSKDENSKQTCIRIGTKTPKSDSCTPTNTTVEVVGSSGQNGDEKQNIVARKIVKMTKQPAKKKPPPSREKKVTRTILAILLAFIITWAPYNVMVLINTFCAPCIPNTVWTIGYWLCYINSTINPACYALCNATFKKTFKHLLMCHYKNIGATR
Kind of data set: PDSP primary binding M2. Conditions: primary binding, 10,000 nM; last figure of the line = mean of the 4 before it; read-out: M2, PDSP raw data, mean. As for the experimental part: as §1, §2, §3

The target of data set [7] is T6, 5-HT7A (Homo sapiens, UniProt P34969).
T6 construct: purchased NIMH Psychoactive Drug Screening Program (PDSP)
T6 sequence (P34969 1-445 isoform P34969-2): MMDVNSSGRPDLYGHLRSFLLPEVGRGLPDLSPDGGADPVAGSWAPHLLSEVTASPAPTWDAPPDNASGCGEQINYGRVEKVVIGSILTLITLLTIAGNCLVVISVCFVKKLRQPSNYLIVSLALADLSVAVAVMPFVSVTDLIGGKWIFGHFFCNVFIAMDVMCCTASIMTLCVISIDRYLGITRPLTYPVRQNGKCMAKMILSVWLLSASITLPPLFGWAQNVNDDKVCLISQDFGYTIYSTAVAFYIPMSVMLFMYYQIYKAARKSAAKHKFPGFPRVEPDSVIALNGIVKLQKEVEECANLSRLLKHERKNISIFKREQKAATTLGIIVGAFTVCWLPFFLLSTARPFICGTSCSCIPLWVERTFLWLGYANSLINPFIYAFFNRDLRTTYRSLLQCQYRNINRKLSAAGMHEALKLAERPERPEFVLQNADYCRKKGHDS
Kind of data set: PDSP primary binding 5-HT7A. The conditions noted are these: 1.5 h; primary binding, 10,000 nM; last figure of the line = mean of the 4 before it; read-out: 5-HT7A, PDSP raw data, mean. As to the method: as §1, §2, §3

Data set [8] deals with T7, A2A (Homo sapiens, UniProt P29274).
T7 construct: purchased NIMH Psychoactive Drug Screening Program (PDSP)
T7 sequence (P29274 whole entry): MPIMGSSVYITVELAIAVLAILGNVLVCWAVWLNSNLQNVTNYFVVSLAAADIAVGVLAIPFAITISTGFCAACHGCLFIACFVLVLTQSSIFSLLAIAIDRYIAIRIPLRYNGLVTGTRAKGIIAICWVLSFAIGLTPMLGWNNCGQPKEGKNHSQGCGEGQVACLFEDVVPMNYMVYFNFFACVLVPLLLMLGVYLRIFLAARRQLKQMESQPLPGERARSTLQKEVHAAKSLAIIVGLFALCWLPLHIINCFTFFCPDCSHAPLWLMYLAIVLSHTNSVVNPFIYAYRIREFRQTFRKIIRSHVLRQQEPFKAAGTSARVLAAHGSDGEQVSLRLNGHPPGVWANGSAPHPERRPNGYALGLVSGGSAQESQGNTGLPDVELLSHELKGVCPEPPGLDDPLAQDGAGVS
Kind of data set: PDSP primary binding A2A. The conditions noted are these: primary binding, 10,000 nM; last figure of the line = mean of the 4 before it. As for the experimental part:
as §1, §2, §3

Data set [9] deals with T8, 5-HT1D (Homo sapiens, UniProt P28221).
T8 construct: purchased NIMH Psychoactive Drug Screening Program (PDSP)
T8 sequence (P28221 whole entry): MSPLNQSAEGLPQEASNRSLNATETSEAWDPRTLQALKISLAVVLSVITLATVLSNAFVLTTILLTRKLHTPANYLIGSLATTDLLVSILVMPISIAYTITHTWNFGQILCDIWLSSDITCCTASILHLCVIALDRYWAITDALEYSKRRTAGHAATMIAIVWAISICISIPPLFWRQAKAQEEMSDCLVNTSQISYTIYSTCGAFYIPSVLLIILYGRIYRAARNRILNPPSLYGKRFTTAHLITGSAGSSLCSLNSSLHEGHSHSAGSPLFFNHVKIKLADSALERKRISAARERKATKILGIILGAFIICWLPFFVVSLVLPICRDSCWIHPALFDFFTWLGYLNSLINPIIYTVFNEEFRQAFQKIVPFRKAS
Kind of data set: PDSP primary binding 5-HT1D. Conditions: 1.5 h; primary binding, 10,000 nM; last figure of the line = mean of the 4 before it; read-out: 5-HT1D, PDSP raw data, mean. As for the experimental part: as §1, §2, §3

T3 sequence (Q12809 whole entry): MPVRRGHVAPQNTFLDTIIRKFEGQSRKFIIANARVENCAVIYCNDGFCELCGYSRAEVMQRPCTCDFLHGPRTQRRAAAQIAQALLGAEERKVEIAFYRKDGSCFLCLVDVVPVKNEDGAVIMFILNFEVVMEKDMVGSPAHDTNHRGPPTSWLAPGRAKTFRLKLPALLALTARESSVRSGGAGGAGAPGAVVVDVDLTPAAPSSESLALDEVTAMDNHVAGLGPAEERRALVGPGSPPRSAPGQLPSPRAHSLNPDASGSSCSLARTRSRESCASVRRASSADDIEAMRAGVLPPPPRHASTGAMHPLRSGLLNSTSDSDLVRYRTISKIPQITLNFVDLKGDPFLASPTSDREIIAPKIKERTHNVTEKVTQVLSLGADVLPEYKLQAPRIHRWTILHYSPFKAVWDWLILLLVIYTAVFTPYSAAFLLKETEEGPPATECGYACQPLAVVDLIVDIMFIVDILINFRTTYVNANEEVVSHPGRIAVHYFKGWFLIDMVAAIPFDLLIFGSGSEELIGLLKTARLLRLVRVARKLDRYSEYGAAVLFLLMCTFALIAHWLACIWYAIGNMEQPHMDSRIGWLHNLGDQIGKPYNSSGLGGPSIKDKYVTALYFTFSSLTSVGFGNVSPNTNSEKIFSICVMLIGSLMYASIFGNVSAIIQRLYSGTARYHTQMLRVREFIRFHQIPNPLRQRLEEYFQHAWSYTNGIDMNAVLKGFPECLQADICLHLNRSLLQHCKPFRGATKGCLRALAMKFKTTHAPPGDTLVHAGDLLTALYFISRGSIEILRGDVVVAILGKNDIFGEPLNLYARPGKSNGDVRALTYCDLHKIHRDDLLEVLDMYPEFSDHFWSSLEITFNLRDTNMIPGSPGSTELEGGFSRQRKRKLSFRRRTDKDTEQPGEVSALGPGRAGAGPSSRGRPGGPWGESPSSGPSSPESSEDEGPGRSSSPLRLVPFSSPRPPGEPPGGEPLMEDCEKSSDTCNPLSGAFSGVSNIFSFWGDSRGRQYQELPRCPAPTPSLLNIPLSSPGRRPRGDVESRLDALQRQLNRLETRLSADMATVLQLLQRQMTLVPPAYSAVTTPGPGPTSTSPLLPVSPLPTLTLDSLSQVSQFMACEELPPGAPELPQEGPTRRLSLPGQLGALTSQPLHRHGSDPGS

As for `C[C@H]1N=C(c2ccccc2F)c2cc(-c3ccccc3)ccc2-n2cnc(C(=O)N(C)C)c21` [Compound 5, (R)-6-(2′-Fluorophenyl)-N,N,4-trimethyl-8-phenyl-4H-benzo[f]imidazo[1,5-a][1,4]diazepine-3-carboxamide], the inhibition at 10 µM was 12.9% in [1]; -0.77% in [2]; -0.89% in data set [4]; 15.4% in data set [6]; 4.31% in [7]; -3.41% in [9]. The “HERG, PDSP raw data, mean” value in data set [3] is -0.48%. Further, the “Kainate (Rat Brain), PDSP raw data, mean” value in data set [5] is given as 3.43%. Moreover, the “A2A, PDSP raw data, mean” value in data set [8] amounted to 11.57%.
As to `C#Cc1ccc2c(c1)C(c1ccccc1Cl)=N[C@H](C)c1c(C(=O)NC)ncn1-2` [Compound 21, (R)-6-(2′-Chlorophenyl)-8-ethynyl-N,4-dimethyl-4H-benzo[f]imidazo[1,5-a][1,4]diazepine-3-carboxamide], the inhibition at 10 µM in data set [1] was -1.39%; in data set [2], 11.3%; in data set [4], 2.85%; in data set [6] it was 0.22%; in data set [7] it was -12.3%; in data set [9], -9.02%. Also, the “HERG, PDSP raw data, mean” value in data set [3] is reported as -5.73%. The “Kainate (Rat Brain), PDSP raw data, mean” value in data set [5] was -4.58%. The “A2A, PDSP raw data, mean” value in [8] was -13.5%.
As to `C#Cc1ccc2c(c1)C(c1ccccn1)=N[C@@H](C)c1c(C(=O)NC)ncn1-2` [Compound 23, (S)-8-Ethynyl-N,4-dimethyl-6-(pyridin-2′-yl)-4H-benzo[f]imidazo[1,5-a][1,4]diazepine-3-carboxamide], the inhibition at 10 µM in data set [1] is -0.12%; in [2] it was 1.99%; in data set [4], -7.15%; in data set [6], -6.16%; in [7], -13.5%; in [9], -15.1%. For the same molecule, in data set [3], the “HERG, PDSP raw data, mean” value is -4.24%. Besides, the “Kainate (Rat Brain), PDSP raw data, mean” value in data set [5] turned out to be 37.08%. The “A2A, PDSP raw data, mean” value in [8] was -9.74%.
For `C#Cc1ccc2c(c1)C(c1ccccc1Cl)=N[C@H](C)c1c(C(=O)N(C)CC)ncn1-2` [Compound 29], the inhibition at 10 µM in data set [1] was 19.9%; in data set [2], 0.02%; in data set [4], -4.07%; in data set [6] it was 3.03%; in data set [7], -2.22%; in [9], -13.1%. Further, in data set [3], the “HERG, PDSP raw data, mean” value was -1.55%. Also, the “Kainate (Rat Brain), PDSP raw data, mean” value in data set [5] came out at 16.79%. For the same molecule, in [8], the “A2A, PDSP raw data, mean” value is -10.24%.
Take `C#Cc1ccc2c(c1)C(c1ccccn1)=N[C@@H](C)c1c(C(=O)N(C)C)ncn1-2` [Compound 31, (S)-8-Ethynyl-N,N,4-trimethyl-6-(pyridin-2′-yl)-4H-benzo[f]imidazo[1,5-a][1,4]diazepine-3-carboxamide]: the inhibition at 10 µM in data set [1] was 7.52%; in [2], -0.5%; in [4] it was -3.58%; in data set [6] it was 3.03%; in data set [7], -9.64%; in data set [9], -15%. In data set [3], the “HERG, PDSP raw data, mean” value came out at 0.95%. Also, the “Kainate (Rat Brain), PDSP raw data, mean” value in data set [5] was found to be 23.99%. Besides, the “A2A, PDSP raw data, mean” value in [8] was -10.83%.
For `C#Cc1ccc2c(c1)C(c1ccccc1F)=N[C@H](C)c1c(C(=S)N(C)C)ncn1-2` [Compound 33, (R)-8-Ethynyl-6-(2′-fluorophenyl)-N,N,4-trimethyl-4H-benzo[f]imidazo[1,5-a][1,4]diazepine-3-carbothioamide], the inhibition at 10 µM in data set [1] is 12.9%; in data set [2], -0.77%; in data set [4] it was -0.89%; in [6] it was 15.4%; in [7] it was 4.31%; in [9], -3.41%. Moreover, the “HERG, PDSP raw data, mean” value in data set [3] is recorded as -0.48%. Moreover, the “Kainate (Rat Brain), PDSP raw data, mean” value in data set [5] was found to be 3.43%. Besides, the “A2A, PDSP raw data, mean” value in data set [8] amounted to 11.57%.
`CCc1noc(-c2ncn3c2[C@@H](C)N=C(c2ccccc2F)c2cc(-c4ccccc4)ccc2-3)n1` [Compound 35, (R)-3-Ethyl-5-(6-(2′-fluorophenyl)-4-methyl-8-phenyl-4H-benzo[f]imidazo[1,5-a][1,4]diazepin-3-yl)-1,2,4-oxadiazole]: the inhibition at 10 µM is 31.6% in data set [1]; 12% in data set [2]; -9.33% in data set [4]; -7.95% in [6]; 8.12% in data set [7]; 6.66% in data set [9]. The “HERG, PDSP raw data, mean” value in data set [3] was found to be 37.34%. The “Kainate (Rat Brain), PDSP raw data, mean” value in data set [5] was found to be 33.32%. The “A2A, PDSP raw data, mean” value in data set [8] was determined as 19.84%.
With `CCc1noc(-c2ncn3c2[C@@H](C)N=C(c2ccccc2F)c2cc(Cl)ccc2-3)n1` [Compound 36, (R)-5-(8-Chloro-6-(2′-fluorophenyl)-4-methyl-4H-benzo[f]imidazo[1,5-a][1,4]diazepin-3-yl)-3-ethyl-1,2,4-oxadiazole], the inhibition at 10 µM in [1] is 1.43%; in data set [2] it was 15.6%; in data set [4], -2%; in [6], -3.62%; in data set [7], 1.53%; in data set [9], -1.16%. Moreover, the “HERG, PDSP raw data, mean” value in data set [3] is recorded as -1.15%. Further, the “Kainate (Rat Brain), PDSP raw data, mean” value in data set [5] is on record as 42.86%. In addition, the “A2A, PDSP raw data, mean” value in data set [8] turned out to be 1.43%.

The record behind these values is publication PMC10303271, “Synthesis and Receptor Binding Studies of α5 GABAAR Selective Novel Imidazodiazepines Targeted for Psychiatric and Cognitive Disorders” (Molecules, 2023).
